Assay results: patent publication US11807625B2, “Capsid inhibitors for the prevention of HIV” (Gilead Sciences, Inc., priority 2019, dated 2023)

Assay: PK of compound of Formula (Ia) after single subcutaneous dose of solution formulations in Wistar Han rats
Assay type: in vivo
Settings: male, Wistar Han, rat, plasma, sc, 50 mg/kg, SC 50 mg/kg
Protocol: Formulations containing the compound of Formula (Ia), or a pharmaceutically acceptable salt thereof, were prepared as solutions and optionally administered subcutaneously or intramuscularly to rats, rabbits, and/or dogs.
A solution of about 400 mg/mL of the compound of Formula (Ia) having 19.14 w/w % water, 40.66 w/w % PEG 300, 35.20 w/w % of a sodium salt of a compound of Formula (Ia), and 5.00% ethanol was prepared. The solution was administered subcutaneously to male Wistar Han rats at a dose level of about 50 mg/kg and dose volume of 0.125 mL/kg and the pharmacokinetic (PK) profile was determined.
A solution of about 500 mg/mL of the compound of Formula (Ia) having 16.64 w/w % water, 35.36 w/w % PEG 300, 43.00 w/w % of a sodium salt of a compound of Formula (Ia), and 5.00% ethanol was prepared. The solution was administered subcutaneously to male Wistar Han rats at a dose level of about 50 mg/kg and dose volume of 0.1 mL/kg and the pharmacokinetic (PK) profile was determined.
A solution of about 400 mg/mL of the compound of Formula (Ia) having 17.00 w/w % water, 36.40 w/w % PEG 300, 35.20 w/w % of a sodium salt of a compound of Formula (Ia), 5.00 w/w % ethanol, and 6.40 w/w % poloxamer 188 was prepared. The solution was administered subcutaneously to male beagle dogs at a dose level of about 12 mg/kg and male Wistar Han rats at a dose level of about 50 mg/kg. The pharmacokinetic profiles were determined, and the results for dogs are summarized in Table and Table, while the results for rats are summarized in Table and Table below.
A solution of about 500 mg/mL of the compound of Formula (Ia) having 14.06 w/w % water, 30.12 w/w % PEG 300, […] of a sodium salt of a compound of Formula (Ia), 5.00 w/w % ethanol, and 6.40 w/w % poloxamer 188 was prepared. The solution was administered subcutaneously to male beagle dogs at a dose level of about 12 mg/kg and male Wistar Han rats at a dose level of about 50 mg/kg. The pharmacokinetic profiles were determined, and the results for dogs are summarized in Table and Table, while the results for rats are summarized in Table and Table below.
A solution of about 300 mg/mL of the compound of Formula (Ia) having 23.33 w/w % water, 48.99 w/w % PEG 300, 26.47 w/w % of a sodium salt of a compound of Formula (Ia), and 1.21 w/w % poloxamer 188 was prepared. The solution was administered subcutaneously to male beagle dogs at a dose level of about 6 mg/kg and male Wistar Han rats at a dose level of about 50 mg/kg. The pharmacokinetic profiles were determined, and the results for dogs are summarized in Table and Table, while the results for rats are summarized in Table and Table below.
A solution of about 400 mg/mL of the compound of Formula (Ia) having 18.80 w/w % water, 40.25 w/w % PEG 300, 34.38 w/w % of a sodium salt of a compound of Formula (Ia), 5.00 w/w % ethanol, and 1.57 w/w % poloxamer 188 was prepared. The solution was administered subcutaneously to male beagle dogs at a dose level of about 12 mg/kg and male Wistar Han rats at a dose level of about 50 mg/kg. The pharmacokinetic profiles were determined, and the results for dogs are summarized in Table and Table, while the results for rats are summarized in Table and Table below.
A solution of about 500 mg/mL of the compound of Formula (Ia) having 16.29 w/w % water, 34.88 w/w % PEG 300, 41.92 w/w % of a sodium salt of a compound of Formula (Ia), 5.00 w/w % ethanol, and 1.91 w/w % poloxamer 188 was prepared. The solution was administered subcutaneously to male beagle dogs at a dose level of about 12 mg/kg and male Wistar Han rats at a dose level of about 50 mg/kg. The pharmacokinetic profiles were determined, and the results for dogs are summarized in Table and Table, while the results for rats are summarized in Table and Table below.
A solution of about 400 mg/mL of the compound of Formula (Ia) having 20.90 w/w % water, 44.72 w/w % PEG 300, and 34.38 w/w % of a sodium salt of a compound of Formula (Ia) was prepared. […]

[1] = mean, n = 3 rats, solution R, 400 mg/mL
[2] = mean, n = 3 rats, solution S, 500 mg/mL
[3] = mean, n = 3 rats, solution V, 300 mg/mL
[4] = mean, n = 5 rats, solution T, 400 mg/mL
[5] = mean, n = 5 rats, solution U, 500 mg/mL
[6] = individual rats, solution R, 400 mg/mL
[7] = individual rats, solution S, 500 mg/mL
[8] = individual rats, solution V, 300 mg/mL
[9] = mean (rat #1 NS), solution T, 400 mg/mL
[10] = Wistar Han rats, 400 mg/mL solution AA (6.25% poloxamer 188), Mean n = 4
[11] = Wistar Han rats, 400 mg/mL solution AA (6.25% poloxamer 188), animals #1-#4

Structure (SMILES): CC(C)(C#Cc1ccc(-c2ccc(Cl)c3c(NS(C)(=O)=O)nn(CC(F)(F)F)c23)c([C@H](Cc2cc(F)cc(F)c2)NC(=O)Cn2nc(C(F)(F)F)c3c2C(F)(F)[C@@H]2C[C@H]32)n1)S(C)(=O)=O [compound of Formula (Ia)]
- concentration at 672 h [1]: 0.339 µM
- concentration at 672 h [2]: 0.296 µM
- concentration at 672 h [3]: 0.308 µM
- concentration at 672 h [4]: 0.298 µM
- concentration at 672 h [5]: 0.296 µM
- concentration at 840 h [6]: 0.295 µM
- concentration at 840 h [7]: 0.429 µM
- concentration at 840 h [8]: 0.285 µM
- concentration at 840 h [1]: 0.35 µM
- concentration at 840 h [2]: 0.3 µM
- concentration at 840 h [3]: 0.308 µM
- concentration at 840 h [4]: 0.215 µM
- concentration at 840 h [5]: 0.261 µM
- concentration at 1008 h [6]: 0.303 µM
- concentration at 1008 h [1]: 0.354 µM
- concentration at 1008 h [2]: 0.3 µM
- concentration at 1008 h [3]: 0.258 µM
- concentration at 1008 h [4]: 0.207 µM
- concentration at 1008 h [5]: 0.284 µM
- concentration at 1334 h [6]: 0.296 µM
- concentration at 1334 h [7]: 0.398 µM
- concentration at 1334 h [1]: 0.328 µM
- concentration at 1334 h [2]: 0.3 µM
- concentration at 1344 h [8]: 0.272 µM
- concentration at 1344 h [3]: 0.301 µM
- concentration at 1344 h [4]: 0.159 µM
- concentration at 1344 h [5]: 0.226 µM
- concentration at 1680 h [6]: 0.271 µM
- concentration at 1680 h [7]: 0.342 µM
- concentration at 1680 h [8]: 0.221 µM
- concentration at 1680 h [9]: 0.145 µM
- concentration at 1680 h [1]: 0.277 µM
- concentration at 1680 h [2]: 0.249 µM
- concentration at 1680 h [3]: 0.25 µM
- concentration at 1680 h [5]: 0.198 µM
- concentration at 2016 h [6]: 0.199 µM
- concentration at 2016 h [7]: 0.221 µM
- concentration at 2016 h [8]: 0.138 µM
- concentration at 2016 h [9]: 0.14 µM
- concentration at 2016 h [1]: 0.202 µM
- concentration at 2016 h [2]: 0.171 µM
- concentration at 2016 h [3]: 0.181 µM
- concentration at 2016 h [5]: 0.174 µM
- concentration at 2352 h [6]: 0.183 µM
- concentration at 2352 h [7]: 0.231 µM
- concentration at 2352 h [8]: 0.122 µM
- concentration at 2352 h [9]: 0.117 µM
- concentration at 2352 h [1]: 0.182 µM
- concentration at 2352 h [2]: 0.173 µM
- concentration at 2352 h [3]: 0.165 µM
- concentration at 2352 h [5]: 0.167 µM
- concentration at 2688 h [6]: 0.168 µM
- concentration at 2688 h [7]: 0.171 µM
- concentration at 2688 h [8]: 0.113 µM
- concentration at 2688 h [9]: 0.162 µM
- concentration at 2688 h [1]: 0.154 µM
- concentration at 2688 h [2]: 0.148 µM
- concentration at 2688 h [3]: 0.141 µM
- concentration at 2688 h [5]: 0.108 µM
- concentration at 3024 h [6]: 0.136 µM
- concentration at 3024 h [7]: 0.125 µM
- concentration at 3024 h [8]: 0.0814 µM
- concentration at 3024 h [9]: 0.131 µM
- concentration at 3024 h [1]: 0.122 µM
- concentration at 3024 h [2]: 0.108 µM
- concentration at 3024 h [3]: 0.0991 µM
- concentration at 3024 h [5]: 0.102 µM
- concentration at 3360 h [6]: 0.132 µM
- concentration at 3360 h [7]: 0.135 µM
- concentration at 3360 h [8]: 0.0811 µM
- concentration at 3360 h [9]: 0.117 µM
- concentration at 3360 h [1]: 0.111 µM
- concentration at 3360 h [2]: 0.11 µM
- concentration at 3360 h [3]: 0.0774 µM
- concentration at 3360 h [5]: 0.088 µM
- concentration at 3696 h [7]: 0.102 µM
- concentration at 3696 h [8]: 0.0722 µM
- concentration at 3696 h [9]: 0.0737 µM
- concentration at 3696 h [1]: 0.0948 µM
- concentration at 3696 h [2]: 0.092 µM
- concentration at 3696 h [3]: 0.0684 µM
- concentration at 3696 h [5]: 0.0705 µM
- concentration at 4032 h [7]: 0.118 µM
- concentration at 4032 h [8]: 0.0566 µM
- concentration at 4032 h [9]: 0.0715 µM
- concentration at 4032 h [1]: 0.102 µM
- concentration at 4032 h [2]: 0.11 µM
- concentration at 4032 h [3]: 0.0523 µM
- concentration at 4032 h [5]: 0.0657 µM
- concentration at 4704 h [7]: 0.0629 µM
- concentration at 4704 h [8]: 0.0359 µM
- concentration at 4704 h [9]: 0.0443 µM
- concentration at 4704 h [1]: 0.069 µM
- concentration at 4704 h [2]: 0.0715 µM
- concentration at 4704 h [3]: 0.0302 µM
- concentration at 4704 h [5]: 0.0431 µM
- concentration at 5376 h [9]: 0.0344 µM
- concentration at 5376 h [1]: 0.058 µM
- concentration at 5376 h [2]: 0.0588 µM
- concentration at 5376 h [5]: 0.0389 µM
- concentration at 6048 h [9]: 0.029 µM
- concentration at 6048 h [1]: 0.0302 µM
- concentration at 6048 h [2]: 0.045 µM
- concentration at 6048 h [5]: 0.0362 µM
- concentration at 6720 h [9]: 0.0215 µM
- concentration at 6720 h [1]: 0.0263 µM
- concentration at 6720 h [2]: 0.037 µM
- concentration at 6720 h [5]: 0.0265 µM
- concentration at 7392 h [1]: 0.0165 µM
- concentration at 7392 h [2]: 0.0294 µM
- concentration at 8064 h [1]: 0.0123 µM
- concentration at 8064 h [2]: 0.0248 µM
- concentration at 1 h [10]: 0.0359 µM
- concentration at 1 h [11]: 0.029 µM
- concentration at 3 h [10]: 0.0695 µM
- concentration at 3 h [11]: 0.0679 µM
- concentration at 8 h [10]: 0.122 µM
- concentration at 8 h [11]: 0.109 µM
- concentration at 24 h [10]: 0.233 µM
- concentration at 24 h [11]: 0.259 µM
- concentration at 48 h [10]: 0.251 µM
- concentration at 48 h [11]: 0.272 µM
- concentration at 72 h [10]: 0.227 µM
- concentration at 72 h [11]: 0.231 µM
- concentration at 96 h [10]: 0.201 µM
- concentration at 96 h [11]: 0.211 µM
- concentration at 168 h (Wistar Han rats, 400 mg/mL solution AA (6.25% poloxamer 188), 168 h, Mean n = 4): 0.141 µM
- concentration at 336 h (Wistar Han rats, 400 mg/mL solution AA (6.25% poloxamer 188), 336 h, Mean n = 4): 0.13 µM
- concentration at 504 h (Wistar Han rats, 400 mg/mL solution AA (6.25% poloxamer 188), 504 h, Mean n = 4): 0.131 µM
- concentration at 672 h [10]: 0.117 µM
- concentration at 672 h [11]: 0.13 µM
- concentration at 840 h [10]: 0.118 µM
- concentration at 840 h [11]: 0.17 µM
- concentration at 1008 h [10]: 0.103 µM
- concentration at 1008 h [11]: 0.134 µM
- concentration at 1344 h [10]: 0.0771 µM
- concentration at 1344 h [11]: 0.093 µM
- concentration at 1680 h [10]: 0.0638 µM
